Reference: patent US20260176284A1, “Compounds with Anti-KRAS Mutated Tumor Activity” (Trasveda Ltd., priority 2022, published 2026)

Test system: KRAS G12D mutated AGS human gastric adenocarcinoma cells
Assay: Proliferation inhibition of KRAS G12D mutant AGS cells, another experiment with similar protocol (includes MRTX1133)
Assay type: cell-based
Settings: Homo sapiens
Method: In another experiment, using a protocol similar to the one described above, the inhibitory activity of some representative compounds of the present invention against KRAS G12D mutated AGS human gastric adenocarcinoma cells was determined.
The synthesis of compound MRTX1133 was performed according to the method described in J. Med. Chem. 2022, 65, 4, 3123-3133.

With `C#Cc1c(F)ccc2cc(O)cc(-c3c(F)cc4c(N5CC6CCC(C5)N6)nc(OC[C@]5(C)CN(C)CCC5=C)nc4c3F)c12` (atropisomer, axis not shown; (Ra)) [Example 40, (Ra)-4-(4-((1R,5S)-3,8-diazabicyclo[3.2.1]octan-3-yl)-2-(((S)-1,3-dimethyl-4-methylenepiperidin-3-yl)methoxy)-6,8-difluoroquinazolin-7-yl)-5-ethynyl-6-fluoronaphthalen-2-ol] the IC50 was 0.009 µM.

For `C#Cc1c(F)ccc2cc(O)cc(-c3c(F)cc4c(N5CC6CCC(C5)N6)nc(OC[C@]5(C)CN(C)CC[C@@H]5CF)nc4c3F)c12` (atropisomer, axis not shown; (Ra)) [Example 45-3], the IC50 was 0.005 µM.

`C#Cc1c(F)ccc2cc(O)cc(-c3c(F)cc4c(N5CC6CCC(C5)N6)nc(OC[C@]5(C)CN(C6CC6)CCC5(F)F)nc4c3F)c12` (atropisomer, axis not shown; (Ra)) [Example 49, (Ra)-4-(4-((1R,5S)-3,8-diazabicyclo[3.2.1]octan-3-yl)-2-(((S)-1-cycloprop-yl-4,4-difluoro-3-methylpiperi-din-3-yl)methoxy)-6,8-difluoroquinazolin-7-yl)-5-ethynyl-6-fluoronaph-thalen-2-ol] showed an IC50 of 0.386 µM.

Molecule `C#Cc1c(F)ccc2cc(O)cc(-c3c(F)cc4c(N5CC6CCC(C5)N6)nc(OC[C@]5(C)CN(CC)CC[C@@H]5F)nc4c3F)c12` (atropisomer, axis not shown; (Ra)) [Example 50-1, (Ra)-4-(4-((1R,5S)-3,8-diazabicyclo[3.2.1]octan-3-yl)-2-(((35,4S)-1-ethyl-4-fluoro-3-methylpiper-idin-3-yl)methoxy)-6,8-difluoroquinazolin-7-yl)-5-ethynyl-6-fluoronaph-thalen-2-ol] has an IC50 of 0.015 µM.

For `C#Cc1c(F)ccc2cc(O)cc(-c3c(F)cc4c(N5CC6CCC(C5)N6)nc(OC[C@]5(C)CN(CC)CC[C@H]5F)nc4c3F)c12` (atropisomer, axis not shown; (Ra)) [Example 50-3, (Ra)-4-(4-((1R,5S)-3,8-diazabicyclo[3.2.1]octan-3-yl)-2-(((35,4R)-1-ethyl-4-fluoro-3-methylpiperi-din-3-yl)methoxy)-6,8-difluoroquinazolin-7-yl)-5-ethynyl-6-fluoronaph-thalen-2-ol], the IC50 was 0.007 µM.

Work on `C#Cc1c(F)ccc2cc(O)cc(-c3c(F)cc4c(N5CC6CCC(C5)N6)nc(OC[C@]5(C)CN(CC)CC[C@@H]5C)nc4c3F)c12` (atropisomer, axis not shown; (Ra)) [Example 52-1, (Ra)-4-(4-((1R,5S)-3,8-diazabicyclo[3.2.1]octan-3-yl)-2-(((35,4S)-1-ethyl-3,4-dimethyl-piperidin-3-yl)methoxy)-6,8-difluoroquinazolin-7-yl)-5-ethynyl-6-fluoro-naphthalen-2-ol] yielded an IC50 of 0.01 µM.

`C#Cc1c(F)ccc2cc(O)cc(-c3c(F)cc4c(N5CC6CCC(C5)N6)nc(OC[C@]5(C)CN(CC)CCC5=C)nc4c3F)c12` (atropisomer, axis not shown; (Ra)) [Example 63, (Ra)-4-(4-((1R,5S)-3,8-diazabicyclo[3.2.1]octan-3-yl)-2-(((S)-1-ethyl-3-methyl-4-methylenepiperi-din-3-yl)methoxy)-6,8-difluoroquinazolin-7-yl)-5-ethynyl-6-fluoronaph-thalen-2-ol] was tested, and the IC50 was 0.011 µM.

With `C#Cc1c(F)ccc2cc(O)cc(-c3ncc4c(N5CC6CCC(C5)N6)nc(OC[C@]5(CC)CN(C)CC[C@@H]5C(F)F)nc4c3F)c12` (racemic) [Example 396, (±)4-(4-((1R,5S)-3,8-diazabicyclo[3.2.1]octan-3-yl)-2-(((3S,4S)-4-(difluoromethyl)-3-ethyl-1-methylpiperidin-3-yl)methoxy)-8-fluoropyrido[4,3-A]pyrimidin-7-yl)-5-ethynyl-6-fluoronaphthalen-2-ol] the IC50 was 0.011 µM.

`Cc1cc(N)c(C#N)c(-c2c(F)cc3c(N4C[C@H]5CC[C@@H](C4)N5)nc(OC[C@]4(C)CN(C)CC[C@@H]4CF)nc3c2F)c1C(F)(F)F` (single isomer, unassigned) [Example 85-2] was tested, and the IC50 was 0.038 µM.

`CN1CC[C@H](CF)[C@](C)(COc2nc(N3CC4CCC(C3)N4)c3cc(F)c(-c4c(C#N)c(N)cc(Cl)c4C(F)(F)F)c(F)c3n2)C1` (single isomer, unassigned) [Example 122-1, (Ra or Sa)-2-(4-((1R,5S)-3,8-diazabicyclo[3.2.1]octan-3-yl)-6,8-difluoro-2-(((3S,4S)-4-(fluoromethyl)-1,3-dimethylpiperidin-3-yl)methoxy)quinazolin-7-yl)-6-amino-4-chloro-3-(trifluoromethyl) benzonitrile·trifluoroacetate] showed an IC50 of 0.034 µM.

Work on `CN1CC/C(=C\F)[C@](C)(COc2nc(N3CC4CCC(C3)N4)c3cc(Cl)c(-c4cccc5sc(N)c(C#N)c45)c(F)c3n2)C1` (single isomer, unassigned) [Example 313-2] yielded an IC50 of 0.017 µM.

With `[2H]C([2H])([2H])N1CC[C@H](C(F)F)[C@](C)(C([2H])([2H])Oc2nc(N3CC4CCC(C3)N4)c3cc(Cl)c(-c4cccc5sc(N)c(C#N)c45)c(F)c3n2)C1` (single isomer, unassigned) [Example 315-2] the IC50 was 0.013 µM.

`CN1CC/C(=C\F)[C@](C)(COc2nc(N3CC4CCC(C3)N4)c3cc(C(F)(F)F)c(-c4cccc5sc(N)c(C#N)c45)c(F)c3n2)C1` (single isomer, unassigned) [Example 318-1] showed an IC50 of 0.009 µM.

`CN1CC/C(=C\F)[C@](C)(COc2nc(N3C[C@H]4CC[C@@H](C3)N4)c3cc(C(F)(F)F)c(-c4c(F)ccc5sc(N)c(C#N)c45)c(F)c3n2)C1` (single isomer, unassigned) [Example 362-1] gave an IC50 of 0.005 µM.

`CN1CC[C@H](C(F)F)[C@](C)(COc2nc(N3C[C@H]4CC[C@@H](C3)N4)c3cc(C(F)(F)F)c(-c4c(F)ccc5sc(N)c(C#N)c45)c(F)c3n2)C1` (single isomer, unassigned) [Example 363-1] was tested, and the IC50 was 0.004 µM.

In the case of `[2H]C([2H])([2H])[C@@]1(COc2nc(N3CC4CCC(C3)N4)c3cnc(-c4cc(O)cc5ccc(F)c(C#C)c45)c(F)c3n2)CN(C)CC[C@@H]1C(F)F` (single isomer, unassigned) [Example 426, (Sa) or (Ra)-4-(4-((1R,5S)-3,8-diazabicyclo[3.2.1]octan-3-yl)-2-(((3S,4S)-4-(difluoromethyl)-1-methyl-3-(methyl-d3)piperidin-3-yl)methoxy)-8-fluoropyrido[4,3-d]pyrimidin-7-yl)-5-ethynyl-6-fluoronaphthalen-2-ol], the IC50 is reported as 0.007 µM.

For `CN1CCC(F)(F)[C@](C)(COc2nc(N3CC4CCC(C3)N4)c3cc(F)c(-c4cc(O)cc(Cl)c4C4CC4)c(F)c3n2)C1` [Example 29-1A, 3-(4-((1R,5S)-3,8-diazabicyclo[3.2.1]octane-3-yl)-2-(((S)-4,4-difluoro-1,3-dimethylpiperidin-3-yl)methoxy)-6,8-difluoroquinolin-7-yl)-5-chloro-4-cyclopropylphenol·diformate], the IC50 was 0.63 µM.

With `C#Cc1c(F)ccc2cc(O)cc(-c3ncc4c(N5CC6CCC(C5)N6)nc(OC[C@]5(C)CN(C)CC[C@@H]5F)nc4c3F)c12` [Example 67-1] the IC50 was 0.077 µM.

For `C#Cc1c(F)ccc2cc(O)cc(-c3ncc4c(N5CC6CCC(C5)N6)nc(OC[C@]5(C)CN(C)CC[C@H]5F)nc4c3F)c12` [Example 67-3], the IC50 was 0.017 µM.

In the case of `C#Cc1c(F)ccc2cc(O)cc(-c3ncc4c(N5CC6CCC(C5)N6)nc(OC[C@]5(C)CN(C)CC[C@@H]5CF)nc4c3F)c12` [Example 71-2], the IC50 is reported as 0.008 µM.

With `C#Cc1c(F)ccc2cc(O)cc(-c3c(F)cc4c(N5C[C@H]6CC[C@@H](C5)N6)nc(OC[C@]5(C)CN(CC)CC/C5=C\F)nc4c3F)c12` [Example 79, 4-(4-((1R,5S)-3,8-diazabicyclo[3.2.1]octan-3-yl)-2-(((S,E)-1-ethyl-4-(fluoromethylene)-3-methylpiperidin-3-yl)methoxy)-6,8-difluoroquinazoline-7-yl)-5-ethynyl-6-fluoronaphthalene-2-ol] the IC50 was 0.004 µM.

`C#Cc1c(F)ccc2cc(O)cc(-c3c(F)cc4c(N5C[C@H]6CC[C@@H](C5)N6)nc(OC[C@]5(C)CN(C)CCC56CC6)nc4c3F)c12` [Example 88, 4-(4-((1R,5S)-3,8-diazabicyclo[3.2.1]octan-3-yl)-2-(((S)-4,6-dimethyl-6-azaspiro[2.5]octan-4-yl)methoxy)-6,8-difluoroquinazolin-7-yl)-5-ethynyl-6-fluoronaphthalen-2-ol] gave an IC50 of 0.017 µM.

`C#Cc1c(F)ccc2cc(O)cc(-c3c(F)cc4c(N5C[C@H]6CC[C@@H](C5)N6)nc(OC[C@]5(C)CN(CC)CCC56CC6)nc4c3F)c12` [Example 95, 4-(4-((1R,5S)-3,8-diazabicyclo[3.2.1]octan-3-yl)-2-(((S)-6-ethyl-4-methyl-6-azaspiro[2.5]octan-4-yl)methoxy)-6,8-difluoroquinazolin-7-yl)-5-ethynyl-6-fluoronaphthalen-2-ol] was tested, and the IC50 was 0.008 µM.

For `CCc1c(F)ccc2cc(O)cc(-c3c(F)cc4c(N5CC6CCC(C5)N6)nc(OC[C@]5(C)CN(C)CC[C@@H]5CF)nc4c3F)c12` [Example 99-1], the IC50 was 0.018 µM.

Work on `CN1CC[C@H](C(F)F)[C@](C)(COc2nc(N3C[C@H]4CC[C@@H](C3)N4)c3cc(F)c(-c4cccc5sc(N)c(C#N)c45)c(F)c3n2)C1` [Example 190, 4-(4-((1R,5S)-3,8-diazabicyclo[3.2.1]octan-3-yl)-2-(((3S,4S)-4-(difluoromethyl)-1,3-dimethylpiperidin-3-yl)methoxy)-6,8-difluoroquinazolin-7-yl)-2-aminobenzo[b]thiophene-3-nitrile] yielded an IC50 of 0.047 µM.

With `CN1CC/C(=C\F)[C@](C)(COc2nc(N3CC4CCC(C3)N4)c3cc(F)c(-c4cccc5sc(N)c(C#N)c45)c(F)c3n2)C1` [Example 194] the IC50 was 0.097 µM.

`C#Cc1c(F)ccc2cc(O)cc(-c3nc(OC)c4c(N5C[C@H]6CC[C@@H](C5)N6)nc(OC[C@]5(C)CN(C)CCC5=C)nc4c3F)c12` [Example 258, 4-(4-((1R,5S)-3,8-diazabicyclo[3.2.1]octan-3-yl)-2-(((S)-1,3-dimethyl-4-methylenepiperidin-3-yl)methoxy)-8-fluoro-5-methoxypyrido[4,3-d]pyrimidin-7-yl)-5-ethynyl-6-fluoronaphthalen-2-ol] was tested, and the IC50 was 0.008 µM.
